Assay [1] concerns wild-type L. monocytogenes EGD-e. As to the kind of experiment: Disinfection tolerance, wild-type strain. The class given is cell-based, Listeria monocytogenes. Conditions: sodium hypochlorite 1600 ppm, 10 min, room temperature; HTM-grown cultures. How it is done: FIGS. 6A-6D: Role of the c-di-GMP-induced EPS in biofilm formation, cell aggregation, and tolerance of L. monocytogenes to disinfectants and desiccation. […] Cultures were grown for 6 days at 30° C. in LB (top panel) or LB supplemented with 3% glycerol (bottom panel). Shown are average results from two biological replicates, where each strain was grown in six wells in a replicate (i.e., six technical replicates). Black circle, wild type; red square, ΔpdeB/C/D; green triangle, ΔpdeB/C/D ΔpssC; blue cross, ΔpdeB/C/D ΔpssE. […] Overnight cultures grown in BHI were inoculated into HTM liquid medium at A600 of 0.01 and incubated at 30° C. with gentle shaking (rotary shaker, 125 rpm) for 48 h. 1, ΔpdeB/C/D; 2, wild type; 3, ΔpdeB/C/D ΔpssC; 4, ΔpdeB/C/D ΔpssE. […] Aliquots of the HTM-grown cultures were mixed with disinfectant solutions for 10 min at room temperature. […]
EPS is known to protect bacteria from environmental insults. Here, the role of L. monocytogenes EPS in providing tolerance to disinfection and desiccation was evaluated. […]
Solutions of sodium hypochlorite, hydrogen peroxide, and benzalkonium chloride (Sigma-Aldrich and Sigma Life Sciences) were prepared in sterile phosphate-buffered saline with disinfection concentrations of 1600 ppm, 200 mM, and 100 ppm, respectively. […] Serial dilutions were plated on BHI agar and colonies were counted following a 48-h incubation at 37° C.

Assay [2] relates to L. monocytogenes. The class given is cell-based. Conditions: 1600 ppm, 10 min, room temperature; for killing of wild-type strain EGD-e: HTM-grown culture.
Description: Here, the role of L. monocytogenes EPS in providing tolerance to disinfection and desiccation was evaluated. […] To distinguish between the contribution of EPS versus EPS-independent c-di-GMP-responsive agents, included in the tests were the ΔpdeB/C/D ΔpssC mutant characterized by elevated intracellular c-di-GMP levels but defective in EPS production.
Cultures were grown in HTM with 3% glucose at 37° C. for 24 h, at which point small uniform clumps are formed by the ΔpdeB/C/D strain. Aliquots (250 μl; 10^8 cfu/ml) of these cultures were mixed with disinfectants at 1:1 vol ratios in small glass tubes that also contained 0.1 g of acid washed glass beads (Sigma Life Sciences). Following a 10-min exposure to disinfectants at room temperature, D/E neutralizing broth (500 μl; Difco) was added. Samples were vigorously vortexed (for 5 min) and clumps of the ΔpdeB/C/D strain were dispersed due to the action of the glass beads. Serial dilutions were plated on BHI agar and colonies were counted following a 48-h incubation at 37° C.

These results are taken from patent US10383338B2, “Compositions and methods for making and using hydrolytic enzymes for degrading polysaccharides made by foodborne pathogenic bacteria” (University of Wyoming, priority 2014, dated 2019).

The structures appear in SMILES notation. Like-named read-outs stand apart in the source and are kept apart here.

Take `OCl` [sodium hypochlorite]: the “killing / survivors after disinfectant treatment” value in assay [1] is given as “highly effective in killing”. Moreover, in assay [2], the “survival of EPS producing ΔpdeB/C/D mutant relative to wild type” value is > 10^6 fold and the “killing of wild-type strain EGD-e” value is reported as “highly effective in killing the wild-type strain”. Also, in assay [2] (listed as SH), the “killing of wild-type strain EGD-e” value is “lack of survivors”.
